What all share (type): in vivo, mouse
Assay [1] concerns acutely-diabetic NOD mice. The experiment in a line: Example 1: fasting blood glucose in acutely-diabetic NOD mice treated with GLP-1 or GLP-1 + Gastrin. The method, then:
Female NOD mice ages 12-16 weeks were treated for 18 days only with vehicle (PBS), GLP-1 (300 μg/kg/day), or GLP-1 (300 μg/kg/day)+Gastrin (3 μg/kg/day), by injection intraperitoneally twice daily within 2 days after diabetes onset. Onset of diabetes was determined by fasting blood glucose (FBG) levels (9-15 mM compared with normal FBG <6.0 mM). The mice were monitored daily for urine glucose and weekly for FBG levels.
At the start of the treatments, fasting blood glucose levels ranged between 11-14 mM. After 18 days of treatments, FBG was 24±1 mM in vehicle-treated mice, 13±2 mM in mice treated with GLP-1 alone, and 6±1 mM in mice treated with the combination of GLP-1 and Gastrin (mean±SE, n=4 mice in treated groups; n=6 mice in the control group).
After 18 days of treatment therapy was stopped and FBG was monitored weekly for additional six weeks. […] Comparatively, the untreated group of animals had to be sacrificed due to the severity of the disease after five weeks.

For assay [2], the system named is acutely-diabetic NOD mice. Kind of assay: Example 2: fasting blood glucose in acutely-diabetic NOD mice, during treatment and 6 weeks after. The method, then: (§1) The mice were monitored daily for urine glucose levels and weekly for FBG levels during the treatment and for an additional 6 weeks after the treatment was stopped. The pancreatic insulin levels were determined in each group as well as histological analysis of the pancreatic tissue was performed. Pancreatic tissues were fixed and stained for insulin producing cells. The beta cell mass was determined by morphometric analysis.

The subject of assay [3] is acutely-diabetic NOD mice. Kind of assay: Example 2: pancreatic insulin levels in NOD mice. The method, then:
as §1

Turning to GLP-1(7-36) Amide, Human, the “FBG course during six weeks after treatment was stopped” value in assay [1] (FBG monitored weekly for six weeks post treatment) is “transient improvement in FBG levels up to 2 weeks after the treatment was stopped”. In addition, the “fasting blood glucose (FBG) after 18 days of treatments” value in assay [1] (female NOD mice, i.p. twice daily for 18 days, GLP-1 300 μg/kg/day, Gastrin 3 μg/kg/day, mean±SE, n=4, normal FBG <6.0 mM) amounted to 13 ± 2 mM. For the same substance, in assay [2] (NOD mice, i.p. twice daily, combination printed as 30 μg/kg/day of GLP-1 and 3 μg/kg/day of G1), the “fasting blood glucose after 18 days of daily treatments” value came to 12.5 ± 2.2 mM. Besides, the “maximal blood glucose levels reached post treatment” value in assay [2] (after treatments stopped, animals suffering from diabetic complications) is given as “over 30 mM”. Besides, the “effect on pancreatic insulin levels (in words)” value in assay [3] is given as “modest effect only”.
